The target of assay [1] is T1, α-chymotrypsin from bovine pancreas (Bos taurus, UniProt P00766).
T1 construct: purchased Sigma C4129; host or cells: bovine pancreas
The experiment in a line: Chymotrypsin inhibition assay. It is filed as biochemical. The conditions noted are these: for IC50: α-chymotrypsin from bovine pancreas, substrate N-succinyl-Gly-Gly-Phe-p-nitroanilide, 30 min pre-incubation, triplicate, read-out: Serine protease inhibitory activity (IC50), Chymotrypsin. Here is the method: (§1) Elastase assay was assessed using high-purity porcine pancreatic elastase (Elastin Products Company, EC134, 135 units/mg). The assay buffer used was 1M Tris-HCl (pH 8.0). Assay buffer (79 μL), elastase solution (75 μg/mL in assay buffer, 5 μL) and various concentrations of 1 and 2 (1 μL, dissolved in DMSO) were pre-incubated for 15 min at room temperature in a microtiter plate. After this time, 15 μL of substrate solution (2 mM N-succinyl-Ala-Ala-Ala-p-nitroanilide in assay buffer) was added to each well and the reaction was followed by measuring the absorbance at 405 nm every 30 s. Inhibition of chymotrypsin was determined using the α-chymotrypsin from bovine pancreas (Sigma, C4129, 55 units/mg). The assay buffer was 50 mM Tris-HCl, 100 mM NaCl and 1 mM CaCl2 (pH 7.8). Assay buffer (39 μL), enzyme solution (100 μg/mL in assay buffer, 10 μL), and various concentrations of 1 and 2 (1 μL, dissolved in DMSO) were pre incubated for 30 min at room temperature before substrate solution (1.5 mM N-succinyl-Gly-Gly-Phe-p-nitroanilide in assay buffer) was added. The reaction was followed by measuring the absorbance at 405 nm every 30 s for 30 min. For each assay, enzyme activity of each well was calculated using the initial slope of each progress curve, expressed as a percentage of the slope of uninhibited reaction. All assays were carried out in triplicate at ambient temperature (T = 29 °C). […] Dose–response curve fitting was done using Xlfit Excel, MathlQ Version 2.2.2 (IDBS Ltd.).

Assay [2] deals with T2, porcine pancreatic elastase (Sus scrofa, UniProt P00772).
T2 construct: purchased Elastin Products Company EC134; host or cells: porcine pancreas
In words: Elastase inhibition assay. In kind it is biochemical. The conditions noted are these: for IC50: porcine pancreatic elastase, substrate N-succinyl-Ala-Ala-Ala-p-nitroanilide, 15 min pre-incubation, triplicate, read-out: Serine protease inhibitory activity (IC50), Elastase. Here is the method: as §1

The target of assay [3] is T1, α-chymotrypsin from bovine pancreas. The conditions noted are these: cited from earlier work.

T2 sequence (P00772 27-266): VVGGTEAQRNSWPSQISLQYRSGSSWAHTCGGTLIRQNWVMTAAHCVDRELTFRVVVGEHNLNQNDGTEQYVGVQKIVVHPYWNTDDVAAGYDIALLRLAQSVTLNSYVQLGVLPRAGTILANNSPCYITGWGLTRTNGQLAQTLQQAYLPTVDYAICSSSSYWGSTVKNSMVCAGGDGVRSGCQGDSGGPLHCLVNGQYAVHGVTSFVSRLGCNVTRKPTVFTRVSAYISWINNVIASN

Take `CC(C)C[C@@H]1NC(=O)[C@@H](NC(=O)[C@@H](NC(=O)[C@H](C)NC(=O)[C@H](CCCc2ccc(O)cc2)NC(=O)[C@H](O)CO)C(C)C)[C@@H](C)OC(=O)[C@H](C(C)C)NC(=O)[C@H](Cc2ccc(O)c(Br)c2)N(C)C(=O)[C@H]([C@@H](C)O)N2C(=O)[C@H](CC[C@H]2O)NC1=O` [Largamide D (2), largamide D]: the IC50 in assay [1] was 83 ± 8 nM; in assay [2] it was 45 ± 3 nM. The “chymotrypsin inhibition, previously reported” value in assay [3] is “moderate chymotrypsin inhibitor”.

Regarding `CC(C)CC1NC(=O)C(NC(=O)C(NC(=O)C(C)NC(=O)C(CCCc2ccc(O)cc2)NC(=O)C(O)CO)C(C)C)C(C)OC(=O)C(C(C)C)NC(=O)C(Cc2ccc(O)c(Br)c2)N(C)C(=O)C2C(C)OC3CCC(NC1=O)C(=O)N32` (stereo not shown) [Largamide D oxazolidine (1), largamide D oxazolidine], the “fold reduced activity against chymotrypsin” value in assay [1] (relative to largamide D (2)) is on record as 11 fold. Also, the results for the IC50 in assay [1] and in assay [2] were 928 ± 93 nM and 1520 ± 80 nM, respectively. Moreover, the “fold reduced activity against elastase” value in assay [2] (relative to largamide D (2)) was 33 fold.

What is called IC50 is the concentration that inhibits the measured activity by half.

The record behind these values is paper PMC2901826, “Intramolecular Modulation of Serine Protease Inhibitor Activity in a Marine Cyanobacterium with Antifeedant Properties” (Marine Drugs, 2010).
